Results published in the supplement of paper PMC11061612.

How the values were obtained:
Test in all cases: Bliss excess, mean over the matrix (fraction); higher = more synergy
[1] = test system: RL95-2 (Endometrial Carcinoma)
In short: (§1)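 After 24 hours at 37°C and 5% CO2 in 1536-well plates, cells in DMEM/F12 or RPMI plus 10% FBS received two-drug dose matrices for 72 hours. Viability came from CellTiter-Glo 2.0 luminescence and was scaled as inhibition, anchored at 0 by vehicle wells and at 1 by blank wells. Combination Emax is taken as the second-highest inhibition in the matrix, and Bliss excess as the observed combination effect less EA + EB − EA·EB, with EA and EB the single-agent effects.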

[2] = test system: NCI-H196 (Small Cell Lung Carcinoma)
In short: as §1

[3] = test system: KYM-1 (Rhabdomyosarcoma)
In short: as §1

[4] = test system: Calu-6 (Non-Small Cell Lung Carcinoma)
In short: as §1

## CN(C)CCCOc1ccc(-c2ccc3ncc4c(c3c2)n(C2CCOCC2)c(=O)n4C)cn1 [AZD0156] + C=CCn1c(=O)c2cnc(Nc3ccc(N4CCN(C)CC4)cc3)nc2n1-c1cccc(C(C)(C)O)n1 [AZD1775] (first compound max 1 µM, partner max 1 µM)
[1]
  Bliss excess: -0.03
[2]
  Bliss excess: -0.0791
[3]
  Bliss excess: -0.0123
[4]
  Bliss excess: -0.0479

## CN(C)CCCOc1ccc(-c2ccc3ncc4c(c3c2)n(C2CCOCC2)c(=O)n4C)cn1 [AZD0156] + CCN(CCO)CCCOc1ccc2c(Nc3cc(CC(=O)Nc4cccc(F)c4)[nH]n3)ncnc2c1 [AZD2811] (first compound max 1 µM, 7x7, partner max 1 µM)
[1]
  Bliss excess: 0.0016
[2]
  Bliss excess: -0.05
[3]
  Bliss excess: -0.0186
[4]
  Bliss excess: -0.0112

## CN(C)CCCOc1ccc(-c2ccc3ncc4c(c3c2)n(C2CCOCC2)c(=O)n4C)cn1 [AZD0156] + C[C@@H]1COCCN1C2=NC(=NC(=C2)C3(CC3)[S@](=N)(=O)C)C4=C5C=CNC5=NC=C4 [AZD6738] (first compound max 1 µM, 7x7, partner max 10 µM)
[1]
  Bliss excess: -0.0387
[2]
  Bliss excess: -0.0414
[3]
  Bliss excess: -0.0102
[4]
  Bliss excess: -0.0139

## C=CCn1c(=O)c2cnc(Nc3ccc(N4CCN(C)CC4)cc3)nc2n1-c1cccc(C(C)(C)O)n1 [AZD1775] + C[C@@H]1COCCN1C2=NC(=NC(=C2)C3(CC3)[S@](=N)(=O)C)C4=C5C=CNC5=NC=C4 [AZD6738] (first compound max 1 µM, partner max 10 µM)
[1]
  Bliss excess: 0.0402
[2]
  Bliss excess: -0.0093
[3]
  Bliss excess: 0.0587

## C=CCn1c(=O)c2cnc(Nc3ccc(N4CCN(C)CC4)cc3)nc2n1-c1cccc(C(C)(C)O)n1 [AZD1775] + O=C(c1cc(Cc2n[nH]c(=O)c3ccccc23)ccc1F)N1CCN(C(=O)C2CC2)CC1 [Olaparib] (first compound max 1 µM, partner max 10 µM)
[1]
  Bliss excess: -0.0372
[2]
  Bliss excess: -0.0552
[3]
  Bliss excess: 0.0188
[4]
  Bliss excess: -0.0421

## CCN(CCO)CCCOc1ccc2c(Nc3cc(CC(=O)Nc4cccc(F)c4)[nH]n3)ncnc2c1 [AZD2811] + C=CCn1c(=O)c2cnc(Nc3ccc(N4CCN(C)CC4)cc3)nc2n1-c1cccc(C(C)(C)O)n1 [AZD1775] (first compound max 1 µM, partner max 1 µM)
[1]
  Bliss excess: 0.0389
[2]
  Bliss excess: -0.0371
[3]
  Bliss excess: -0.0096
[4]
  Bliss excess: -0.0028

## CCN(CCO)CCCOc1ccc2c(Nc3cc(CC(=O)Nc4cccc(F)c4)[nH]n3)ncnc2c1 [AZD2811] + C[C@@H]1COCCN1C2=NC(=NC(=C2)C3(CC3)[S@](=N)(=O)C)C4=C5C=CNC5=NC=C4 [AZD6738] (first compound max 1 µM, 7x7, partner max 10 µM)
[1]
  Bliss excess: -0.0873
[2]
  Bliss excess: -0.0655
[3]
  Bliss excess: -0.0214
[4]
  Bliss excess: -0.0382

## CCN(CCO)CCCOc1ccc2c(Nc3cc(CC(=O)Nc4cccc(F)c4)[nH]n3)ncnc2c1 [AZD2811] + O=C(c1cc(Cc2n[nH]c(=O)c3ccccc23)ccc1F)N1CCN(C(=O)C2CC2)CC1 [Olaparib] (first compound max 1 µM, 7x7, partner max 10 µM)
[1]
  Bliss excess: -0.0101
[2]
  Bliss excess: -0.0193
[3]
  Bliss excess: 0.0071
[4]
  Bliss excess: 0.0004

## CN(CCO)CC[C@H](CSc1ccccc1)Nc1ccc(S(=O)(=O)NC(=O)c2ccc(N3CCC([C@@H](O)c4ccccc4-c4ccc(Cl)cc4)CC3)cc2)cc1S(=O)(=O)C(F)(F)F [AZD4320] + C1CN(CCC1(C(=O)N[C@@H](CCO)C2=CC=C(C=C2)Cl)N)C3=NC=NC4=C3C=CN4 [Capivasertib] (first compound max 1 µM, 7x7, partner max 3 µM)
[1]
  Bliss excess: -0.0192
[2]
  Bliss excess: -0.0297
[3]
  Bliss excess: -0.021
[4]
  Bliss excess: 0.0004

## CN(CCO)CC[C@H](CSc1ccccc1)Nc1ccc(S(=O)(=O)NC(=O)c2ccc(N3CCC([C@@H](O)c4ccccc4-c4ccc(Cl)cc4)CC3)cc2)cc1S(=O)(=O)C(F)(F)F [AZD4320] + C=CCn1c(=O)c2cnc(Nc3ccc(N4CCN(C)CC4)cc3)nc2n1-c1cccc(C(C)(C)O)n1 [AZD1775] (first compound max 1 µM, partner max 1 µM)
[1]
  Bliss excess: 0.006
[2]
  Bliss excess: 0.0268
[3]
  Bliss excess: 0.0515
[4]
  Bliss excess: 0.0019

## CN(CCO)CC[C@H](CSc1ccccc1)Nc1ccc(S(=O)(=O)NC(=O)c2ccc(N3CCC([C@@H](O)c4ccccc4-c4ccc(Cl)cc4)CC3)cc2)cc1S(=O)(=O)C(F)(F)F [AZD4320] + CCN(CCO)CCCOc1ccc2c(Nc3cc(CC(=O)Nc4cccc(F)c4)[nH]n3)ncnc2c1 [AZD2811] (first compound max 1 µM, 7x7, partner max 1 µM)
[1]
  Bliss excess: 0.119
[2]
  Bliss excess: -0.0513
[3]
  Bliss excess: -0.01
[4]
  Bliss excess: -0.0023

## CN(CCO)CC[C@H](CSc1ccccc1)Nc1ccc(S(=O)(=O)NC(=O)c2ccc(N3CCC([C@@H](O)c4ccccc4-c4ccc(Cl)cc4)CC3)cc2)cc1S(=O)(=O)C(F)(F)F [AZD4320] + CN(C)CCCOc1ccc(-c2ccc3ncc4c(c3c2)n(C2CCOCC2)c(=O)n4C)cn1 [AZD0156] (first compound max 1 µM, 7x7, partner max 1 µM)
[1]
  Bliss excess: -0.0408
[2]
  Bliss excess: -0.0414
[3]
  Bliss excess: -0.0256
[4]
  Bliss excess: -0.0156

## CN(CCO)CC[C@H](CSc1ccccc1)Nc1ccc(S(=O)(=O)NC(=O)c2ccc(N3CCC([C@@H](O)c4ccccc4-c4ccc(Cl)cc4)CC3)cc2)cc1S(=O)(=O)C(F)(F)F [AZD4320] + C[C@@H]1COCCN1C2=NC(=NC(=C2)C3(CC3)[S@](=N)(=O)C)C4=C5C=CNC5=NC=C4 [AZD6738] (first compound max 1 µM, 7x7, partner max 10 µM)
[1]
  Bliss excess: -0.0163
[2]
  Bliss excess: -0.0112
[3]
  Bliss excess: 0.0286
[4]
  Bliss excess: -0.0258

## CN(CCO)CC[C@H](CSc1ccccc1)Nc1ccc(S(=O)(=O)NC(=O)c2ccc(N3CCC([C@@H](O)c4ccccc4-c4ccc(Cl)cc4)CC3)cc2)cc1S(=O)(=O)C(F)(F)F [AZD4320] + C[C@@H](Nc1cc(F)cc(F)c1)c1cc(C(=O)N(C)C)cc2c(=O)cc(N3CCOCC3)oc12 [AZD8186] (first compound max 1 µM, 7x7, partner max 3 µM)
[1]
  Bliss excess: -0.0036
[2]
  Bliss excess: 0.0427
[3]
  Bliss excess: 0.0193
[4]
  Bliss excess: 0.0264

## CN(CCO)CC[C@H](CSc1ccccc1)Nc1ccc(S(=O)(=O)NC(=O)c2ccc(N3CCC([C@@H](O)c4ccccc4-c4ccc(Cl)cc4)CC3)cc2)cc1S(=O)(=O)C(F)(F)F [AZD4320] + Cc1cc2ncnn2cc1Nc1ncc2c(n1)n(C1CCOCC1)c(=O)n2C [AZD7648] (first compound max 1 µM, 7x7, partner max 10 µM)
[1]
  Bliss excess: -0.0186
[2]
  Bliss excess: -0.0395
[3]
  Bliss excess: -0.018
[4]
  Bliss excess: -0.0522

## CN(CCO)CC[C@H](CSc1ccccc1)Nc1ccc(S(=O)(=O)NC(=O)c2ccc(N3CCC([C@@H](O)c4ccccc4-c4ccc(Cl)cc4)CC3)cc2)cc1S(=O)(=O)C(F)(F)F [AZD4320] + Cn1cnc2c(F)c(Nc3ccc(Br)cc3Cl)c(C(=O)NOCCO)cc21 [Selumetinib] (first compound max 1 µM, 7x7, partner max 3 µM)
[1]
  Bliss excess: 0.137
[2]
  Bliss excess: -0.0339
[3]
  Bliss excess: 0.0283
[4]
  Bliss excess: -0.0019

## COc1nnc2ccc(N3CCC(c4ccc(OCCN5CCN(C)C(=O)[C@H]5C)cc4)CC3)nn12 [AZD5153] + CN(CC[C@H](CSC1=CC=CC=C1)NC2=C(C=C(C=C2)S(=O)(=O)NC(=O)C3=CC=C(C=C3)N4CCC(CC4)[C@H](C5=CC=CC=C5C6=CC=C(C=C6)Cl)O)S(=O)(=O)C(F)(F)F)CCO [AZD4320] (first compound max 1 µM, 7x7, partner max 1 µM)
[1]
  Bliss excess: 0.0571
[2]
  Bliss excess: 0.0277
[4]
  Bliss excess: -0.0429

## Cc1c2c(nn1C)CSCc1cc(n(C)n1)CSc1cc(c3ccccc3c1)OCCCc1c(C(=O)O)n(C)c3c-2c(Cl)ccc13 [AZD5991] + C1CN(CCC1(C(=O)N[C@@H](CCO)C2=CC=C(C=C2)Cl)N)C3=NC=NC4=C3C=CN4 [Capivasertib] (first compound max 1 µM, 7x7, partner max 3 µM)
[1]
  Bliss excess: 0.0001
[2]
  Bliss excess: -0.0499
[3]
  Bliss excess: 0.0807
[4]
  Bliss excess: 0.0106

## Cc1c2c(nn1C)CSCc1cc(n(C)n1)CSc1cc(c3ccccc3c1)OCCCc1c(C(=O)O)n(C)c3c-2c(Cl)ccc13 [AZD5991] + C=CCn1c(=O)c2cnc(Nc3ccc(N4CCN(C)CC4)cc3)nc2n1-c1cccc(C(C)(C)O)n1 [AZD1775] (first compound max 1 µM, partner max 1 µM)
[1]
  Bliss excess: 0.0116
[2]
  Bliss excess: -0.0266
[3]
  Bliss excess: 0.0583
[4]
  Bliss excess: -0.0963

## Cc1c2c(nn1C)CSCc1cc(n(C)n1)CSc1cc(c3ccccc3c1)OCCCc1c(C(=O)O)n(C)c3c-2c(Cl)ccc13 [AZD5991] + CC1(C)CCC(CN2CCN(c3ccc(C(=O)NS(=O)(=O)c4ccc(NCC5CCOCC5)c([N+](=O)[O-])c4)c(Oc4cnc5[nH]ccc5c4)c3)CC2)=C(c2ccc(Cl)cc2)C1 [Venetoclax] (first compound max 1 µM, 7x7, partner max 1 µM)
[1]
  Bliss excess: -0.0463
[2]
  Bliss excess: -0.0251
[3]
  Bliss excess: 0.0117
[4]
  Bliss excess: -0.0014

## Cc1c2c(nn1C)CSCc1cc(n(C)n1)CSc1cc(c3ccccc3c1)OCCCc1c(C(=O)O)n(C)c3c-2c(Cl)ccc13 [AZD5991] + CCN(CCO)CCCOc1ccc2c(Nc3cc(CC(=O)Nc4cccc(F)c4)[nH]n3)ncnc2c1 [AZD2811] (first compound max 1 µM, 7x7, partner max 1 µM)
[1]
  Bliss excess: 0.0272
[2]
  Bliss excess: -0.029
[3]
  Bliss excess: 0.0646
[4]
  Bliss excess: -0.0096

## CC(=O)c1c(C)c2cnc(Nc3ccc(N4CCNCC4)cn3)nc2n(C2CCCC2)c1=O [Palbociclib] + CN(CC[C@H](CSC1=CC=CC=C1)NC2=C(C=C(C=C2)S(=O)(=O)NC(=O)C3=CC=C(C=C3)N4CCC(CC4)[C@H](C5=CC=CC=C5C6=CC=C(C=C6)Cl)O)S(=O)(=O)C(F)(F)F)CCO [AZD4320] (first compound max 10 µM, 7x7, partner max 1 µM)
[1]
  Bliss excess: -0.0566
[2]
  Bliss excess: -0.0489
[4]
  Bliss excess: 0.0279

## CCc1c2c(nc3ccc(O)cc13)-c1cc3c(c(=O)n1C2)COC(=O)[C@]3(O)CC [SN-38] + O=C(c1cc(Cc2n[nH]c(=O)c3ccccc23)ccc1F)N1CCN(C(=O)C2CC2)CC1 [Olaparib] (first compound max 0.3 µM, 7x7, partner max 10 µM)
[3]
  Bliss excess: 0.0383
[4]
  Bliss excess: 0.0211

## C[C@@H](c1ccc2nccn2c1)n1nnc2ncc(-c3cnn(C)c3)nc21 [Savolitinib] + CN(CC[C@H](CSC1=CC=CC=C1)NC2=C(C=C(C=C2)S(=O)(=O)NC(=O)C3=CC=C(C=C3)N4CCC(CC4)[C@H](C5=CC=CC=C5C6=CC=C(C=C6)Cl)O)S(=O)(=O)C(F)(F)F)CCO [AZD4320] (first compound max 1 µM, 7x7, partner max 1 µM)
[1]
  Bliss excess: -0.0297
[2]
  Bliss excess: -0.0847
[4]
  Bliss excess: -0.005
